Experimental data taken from patent US20230301981A1, “TLR7/8 ANTAGONISTS AND USES THEREOF” (Merck Patent GmbH, priority 2020, published 2023).

Experiments:
TLR7 = biological target: T1, TLR7 (Homo sapiens, UniProt Q9NYK1); assay: Human whole blood assay, TLR7-specific agonist stimulation, IL-6 by AlphaLISA; format: cell-based; parameters: Human whole blood from healthy donors was drawn into EDTA Vacutainer tubes; endogenous in cells; host or cells: human whole blood (healthy donors); conditions: TLR7-specific agonist 3 µM, IL-6 readout, read-out: IC50 TLR7 (IL6 READOUT) HUMAN WHOLE BLOOD (N=2)
T1 sequence (Q9NYK1 27-1049): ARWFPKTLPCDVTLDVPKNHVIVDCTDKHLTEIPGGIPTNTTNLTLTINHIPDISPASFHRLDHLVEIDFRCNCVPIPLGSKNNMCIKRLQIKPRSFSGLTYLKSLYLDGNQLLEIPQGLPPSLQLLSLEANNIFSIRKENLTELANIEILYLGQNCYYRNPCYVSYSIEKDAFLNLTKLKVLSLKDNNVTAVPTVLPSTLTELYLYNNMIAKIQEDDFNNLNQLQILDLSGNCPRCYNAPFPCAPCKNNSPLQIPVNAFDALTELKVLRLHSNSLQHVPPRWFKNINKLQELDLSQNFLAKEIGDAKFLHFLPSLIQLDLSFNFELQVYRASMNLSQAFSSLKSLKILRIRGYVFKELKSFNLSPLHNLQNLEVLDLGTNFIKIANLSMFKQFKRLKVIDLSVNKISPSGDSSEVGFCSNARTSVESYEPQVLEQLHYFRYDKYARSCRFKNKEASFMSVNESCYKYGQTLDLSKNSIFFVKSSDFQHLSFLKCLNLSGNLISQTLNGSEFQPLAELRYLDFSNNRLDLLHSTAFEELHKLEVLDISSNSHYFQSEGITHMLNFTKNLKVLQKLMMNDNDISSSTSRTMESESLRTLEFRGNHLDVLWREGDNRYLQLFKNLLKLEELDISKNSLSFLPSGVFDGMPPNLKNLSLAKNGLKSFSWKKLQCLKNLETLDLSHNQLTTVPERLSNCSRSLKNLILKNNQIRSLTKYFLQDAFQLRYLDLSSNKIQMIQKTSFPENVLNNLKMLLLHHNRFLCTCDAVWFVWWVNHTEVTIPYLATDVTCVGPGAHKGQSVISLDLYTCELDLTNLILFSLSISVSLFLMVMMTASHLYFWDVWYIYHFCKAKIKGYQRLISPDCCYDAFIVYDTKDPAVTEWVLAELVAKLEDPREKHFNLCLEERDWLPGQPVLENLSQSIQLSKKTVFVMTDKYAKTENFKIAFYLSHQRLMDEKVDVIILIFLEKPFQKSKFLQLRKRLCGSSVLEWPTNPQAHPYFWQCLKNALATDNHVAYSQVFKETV
Experimental: (§1) Human whole blood from healthy donors was drawn into EDTA Vacutainer tubes and the experiment started within 2 hr of draw. Four parts blood was diluted with 1 part PBS. 10 mM compounds stock solutions were serially diluted 1:3 eleven times in DMSO. Each serial dilution was further diluted by transferring 3 µl to 100 µl RPMI. For the stimulation only and no stimulation controls, 3 µl 100% DMSO was transferred to 100 µl RPMI. Then, 5 µl of each of these dilutions were transferred to 96-well tissue culture grade U-bottom plate in triplicate for each ligand and each donor. Final inhibitor concentrations were 10, 3.3, 1.1, 0.37, 0.12, 0.04, 0.014, 0.0046, 0.0015, 0.00051, 0.00017, 0.00006 µM. No inhibitor (stimulation only) controls were included in triplicate for each donor. Diluted blood was dispensed on top of inhibitor dilutions at 150 µl/well. Plates were incubated at 37° C. 5% CO2 for 30 min. For TLR7 stimulation, 10 mM stock of a TLR7-specific small molecule agonist in DMSO was diluted to 90 µM in RPMI and 5 µl were added to each inhibitor dilution for each donor. Final concentration was 3 µM. For TLR8 stimulation, 10 mM stock of a TLR8-specific small molecule agonist in DMSO was diluted to 15 µM in RPMI and 5 µl were added to each inhibitor dilution for each donor. Final concentration was 0.5 µM. No stimulation controls were included in triplicate for each donor. Plates were incubated at 37° C. 5% CO2 overnight. Next day, plasma was collected and IL-6 was measured by AlphaLISA (PerkinElmer AL223 according to manufacturer’s protocol.

TLR8 = biological target: T2, TLR8 (Homo sapiens, UniProt Q9NR97); assay: Human whole blood assay, TLR8-specific agonist stimulation, IL-6 by AlphaLISA; format: cell-based; conditions: TLR8-specific agonist 0.5 µM, IL-6 readout, read-out: IC50 TLR8 (IL6 READOUT) HUMAN WHOLE BLOOD (N=2)
T2 construct: Human whole blood from healthy donors was drawn into EDTA Vacutainer tubes; endogenous in cells; host or cells: human whole blood (healthy donors)
T2 sequence (Q9NR97 27-1041): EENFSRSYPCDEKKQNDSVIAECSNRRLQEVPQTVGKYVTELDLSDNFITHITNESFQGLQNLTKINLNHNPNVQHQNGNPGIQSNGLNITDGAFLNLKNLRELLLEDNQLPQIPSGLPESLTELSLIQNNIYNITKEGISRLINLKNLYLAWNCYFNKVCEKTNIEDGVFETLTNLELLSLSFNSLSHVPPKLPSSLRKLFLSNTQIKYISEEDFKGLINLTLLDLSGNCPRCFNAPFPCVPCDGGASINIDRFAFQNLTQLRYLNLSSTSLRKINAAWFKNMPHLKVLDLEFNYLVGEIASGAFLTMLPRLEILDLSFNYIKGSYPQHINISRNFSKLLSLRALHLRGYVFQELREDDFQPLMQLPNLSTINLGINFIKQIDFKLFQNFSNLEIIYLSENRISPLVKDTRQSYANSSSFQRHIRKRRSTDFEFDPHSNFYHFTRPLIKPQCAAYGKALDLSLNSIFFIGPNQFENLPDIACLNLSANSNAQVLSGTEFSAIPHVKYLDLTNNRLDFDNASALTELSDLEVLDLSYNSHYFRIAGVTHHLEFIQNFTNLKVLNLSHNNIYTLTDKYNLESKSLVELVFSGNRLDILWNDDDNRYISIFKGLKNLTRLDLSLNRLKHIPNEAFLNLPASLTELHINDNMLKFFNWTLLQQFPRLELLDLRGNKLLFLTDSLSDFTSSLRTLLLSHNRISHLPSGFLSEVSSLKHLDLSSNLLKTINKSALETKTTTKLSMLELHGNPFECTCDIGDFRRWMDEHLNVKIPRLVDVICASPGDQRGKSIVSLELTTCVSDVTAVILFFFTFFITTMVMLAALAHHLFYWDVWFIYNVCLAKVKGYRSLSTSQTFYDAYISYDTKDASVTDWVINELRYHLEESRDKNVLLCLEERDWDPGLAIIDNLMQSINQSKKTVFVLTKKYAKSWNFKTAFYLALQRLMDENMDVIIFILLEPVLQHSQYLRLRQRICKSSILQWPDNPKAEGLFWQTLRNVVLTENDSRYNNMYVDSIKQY
Experimental: as §1

CCN(CCO)CCCC(C)Nc1ccnc2cc(Cl)ccc12 (stereo not shown) [HYDROXY-CHLOROQUINE HCQ, hydroxychloroquine]
IC50 (TLR7): 960 nM
IC50 (TLR8): 1240 nM

COc1ccc2nc3cc(Cl)ccc3c(Nc3cc(CN4CCCC4)c(O)c(CN4CCCC4)c3)c2n1 [Compound 1, Pyronaridine]
IC50 (TLR7): 210 nM
IC50 (TLR8): 610 nM
